Patent US20080227096A1, “Assay for response to proteasome inhibitors” (Centenary Institute of Cancer Medicine and Cell Biology, priority 2006, published 2008)
Read-outs that look alike come from different tables or passages of the source.

Experiments:
relapsed myeloma [1] = settings: single agent, relapsed disease; cited from earlier work
[2] = tested on: prostate cancer cell line LNCaP; test: Bortezomib resistance (proliferation inhibition) assay, LNCaP; assay type: cell-based, human; settings: compared with other non-myeloma cell lines, 5 days proliferation
Protocol: (§1) Cytotoxicity assays were performed essentially as described previously (16). For myeloma cell lines, some modifications were made due to their slow growth rate, non-adherence to the culture plate and sensitivity to sparse plating. Briefly, cells were seeded at 10,000 per well in 96-well plates in RPMI-1640 without phenol red (which interferes with detection of fluorescence). Bortezomib (Millennium Pharmaceuticals; Johnson & Johnson Pharmaceuticals) was applied in a concentration series along the long plate axis. After 5 days of proliferation, cells were permeabilised in situ by adding 5% by volume of 21 X Triton X-100 buffer (10 mM TrisHCl pH 7.4, 5 mM EDTA, 0.1% Triton X-100) and Sybr I Green (Invitrogen) 1:4000. The lysate was mixed thoroughly with a multi-channel pipette. One cycle of freeze and thaw was performed to ensure complete lysis. The fluorescence, measured on a plate reader (Wallac), was proportional to the number of viable cells at the end point. […]
(§2) Briefly, myeloma cell lines, prostate cancer cell lines and lymphoid cell lines were cultured in RPMI-1640 supplemented with 10% foetal calf serum, 100 units/mL penicillin G and 100 μg/mL streptomycin. […] Quantitation of spliced and unspliced XBP-1 and determination of sensitivity to Bortezomib was carried out as previously described (Examples 1.1, 1.2 and 2.1, respectively).

H929 myeloma cells = test: Bortezomib resistance (proliferation inhibition) assay, H929; assay type: cell-based, human
Protocol: Cytotoxicity assays were performed essentially as described previously (16). For myeloma cell lines, some modifications were made due to their slow growth rate, non-adherence to the culture plate and sensitivity to sparse plating. Briefly, cells were seeded at 10,000 per well in 96-well plates in RPMI-1640 without phenol red (which interferes with detection of fluorescence). Bortezomib (Millennium Pharmaceuticals; Johnson & Johnson Pharmaceuticals) was applied in a concentration series along the long plate axis. After 5 days of proliferation, cells were permeabilised in situ by adding 5% by volume of 21 X Triton X-100 buffer (10 mM TrisHCl pH 7.4, 5 mM EDTA, 0.1% Triton X-100) and Sybr I Green (Invitrogen) 1:4000. The lysate was mixed thoroughly with a multi-channel pipette. One cycle of freeze and thaw was performed to ensure complete lysis. The fluorescence, measured on a plate reader (Wallac), was proportional to the number of viable cells at the end point. The IC50 was determined as the concentration of drug that inhibited proliferation to 50% of the untreated controls (see FIG. 5A-5E).
(§3) H929 and RPMI8226 myeloma cells were transduced with virus as follows. […] Total XBP-1 and sensitivity to Bortezomib was determined as previously described (Example 1.1 and Example 2.1, respectively).

RPMI8226 myeloma cells = test: Bortezomib resistance (proliferation inhibition) assay, RPMI8226; assay type: cell-based, human
Protocol: as §1, with “After 5 days of proliferation, cells were permeabilised in situ by adding 5% by volume of 21 X Triton X-100 buffer (10 mM TrisHCl pH 7.4, 5 mM EDTA, 0.1% Triton X-100) and Sybr I Green (Invitrogen) 1:4000. The lysate was mixed thoroughly with a multi-channel pipette. One cycle of freeze and thaw was performed to ensure complete lysis.” left out
as §2, §3

relapsed myeloma [3] = settings: patients with relapsed myeloma, randomised trial, cited from earlier work
refractory myeloma = settings: cited from earlier work
P-glycoprotein = P-glycoprotein (Homo sapiens, UniProt P08183); settings: cited from earlier work
myeloma [4] = settings: cited from earlier work
myeloma cells = settings: direct inhibition of NF-κB; cited from earlier work
myeloma [5] = settings: phase III randomised control trial; cited from earlier work
P-glycoprotein (P-gp) = P-glycoprotein (P-gp) (Homo sapiens, UniProt P08183); settings: cyclosporin D derivative; cited from earlier work
P-glycoprotein (P-gp), sequence (P08183 whole entry): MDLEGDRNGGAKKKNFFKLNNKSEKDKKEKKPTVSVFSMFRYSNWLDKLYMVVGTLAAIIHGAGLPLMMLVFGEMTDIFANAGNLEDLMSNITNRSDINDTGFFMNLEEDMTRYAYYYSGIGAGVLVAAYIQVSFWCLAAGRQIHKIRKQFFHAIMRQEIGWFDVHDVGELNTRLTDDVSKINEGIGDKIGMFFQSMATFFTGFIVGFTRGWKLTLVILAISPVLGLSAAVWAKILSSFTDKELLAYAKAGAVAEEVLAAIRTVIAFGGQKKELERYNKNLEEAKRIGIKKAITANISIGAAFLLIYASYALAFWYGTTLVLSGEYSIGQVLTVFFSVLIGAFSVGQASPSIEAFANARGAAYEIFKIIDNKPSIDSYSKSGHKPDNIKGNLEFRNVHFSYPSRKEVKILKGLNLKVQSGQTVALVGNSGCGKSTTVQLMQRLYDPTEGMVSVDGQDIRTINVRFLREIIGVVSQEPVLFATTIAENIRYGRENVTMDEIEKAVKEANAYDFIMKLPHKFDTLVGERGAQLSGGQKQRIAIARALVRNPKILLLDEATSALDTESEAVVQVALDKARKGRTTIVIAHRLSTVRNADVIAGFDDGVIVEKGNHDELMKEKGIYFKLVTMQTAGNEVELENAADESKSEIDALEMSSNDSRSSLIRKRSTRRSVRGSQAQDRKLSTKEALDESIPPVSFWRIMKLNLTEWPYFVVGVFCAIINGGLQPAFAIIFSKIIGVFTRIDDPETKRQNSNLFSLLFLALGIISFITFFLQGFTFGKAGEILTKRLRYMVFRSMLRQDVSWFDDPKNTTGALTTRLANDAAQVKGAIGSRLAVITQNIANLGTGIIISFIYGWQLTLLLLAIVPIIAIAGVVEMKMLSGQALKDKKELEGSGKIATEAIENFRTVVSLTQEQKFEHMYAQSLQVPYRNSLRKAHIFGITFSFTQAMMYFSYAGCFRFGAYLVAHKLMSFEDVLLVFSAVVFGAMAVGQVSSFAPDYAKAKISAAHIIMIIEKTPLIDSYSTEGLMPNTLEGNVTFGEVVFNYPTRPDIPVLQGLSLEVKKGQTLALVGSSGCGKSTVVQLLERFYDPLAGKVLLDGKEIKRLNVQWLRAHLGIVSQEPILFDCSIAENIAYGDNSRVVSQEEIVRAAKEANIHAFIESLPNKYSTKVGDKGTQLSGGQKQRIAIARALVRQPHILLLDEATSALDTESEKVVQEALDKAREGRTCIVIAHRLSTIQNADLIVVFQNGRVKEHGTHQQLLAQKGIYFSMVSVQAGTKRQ

P-glycoprotein, sequence (P08183 whole entry): as above

## O=C1CCC(N2C(=O)c3ccccc3C2=O)C(=O)N1 (stereo not drawn) [thalidomide]
Relapsed myeloma [1]
  overall response rate: ~32%
  patients with at least very good partial response or complete response: approximately 10%

## CC(C)C[C@H](NC(=O)[C@H](Cc1ccccc1)NC(=O)c1cnccn1)B(O)O [Bortezomib]
[2]
  sensitivity of cell line to Bortezomib (rank): most sensitive to Bortezomib of the non-myeloma cell lines
H929 myeloma cells; H929 cells, XBP-1 knockdown
  change of sensitivity to Bortezomib after shRNA knockdown of XBP-1: decrease in sensitivity to Bortezomib but the change was modest
H929 myeloma cells; myeloma cell lines, 5 days proliferation
  sensitivity of cell line to Bortezomib (rank): most sensitive to Bortezomib
RPMI8226 myeloma cells; RPMI8226 cells, XBP-1 knockdown
  change of sensitivity to Bortezomib after shRNA knockdown of XBP-1: No such effect on sensitivity to Bortezomib
RPMI8226 myeloma cells; RPMI8226 transfectants vs vector control
  change of sensitivity to Bortezomib after overexpression of spliced or unspliced XBP-1 cDNA: only a small effect on sensitivity
Relapsed myeloma [3]; p<0.001
  overall response rate: 38%
Relapsed myeloma [3]
  complete response rate: 6%
  one-year survival rate: 80%
Refractory myeloma; a significant proportion of patients
  side effects: fatigue, nausea, diarrhoea, thrombocytopenia, anaemia and peripheral neuropathy
Refractory myeloma; refractory cases, phase I and II trials
  overall response rate: ~30%
Refractory myeloma; relapsed patients
  primary resistance, proportion of relapsed patients: about 60%
P-glycoprotein
  P-glycoprotein substrate: not a significant P-glycoprotein substrate

## interferon-α
Myeloma [4]
  effect of maintenance therapy on response and survival: marginal effect in terms of prolonging response and survival

## O=C(Nc1cc(Cl)cc2c1[nH]c1cnccc12)c1cccnc1 [PS-1145]
Myeloma cells
  inhibition of proliferation of myeloma cells: insufficient to completely inhibit the proliferation

## C/C=C/C[C@@H](C)C(=O)[C@H]1C(=O)N[C@@H](C(C)C)C(=O)N(C)CC(=O)N(C)[C@@H](CC(C)C)C(=O)N[C@@H](C(C)C)C(=O)N(C)[C@@H](CC(C)C)C(=O)N[C@@H](C)C(=O)N[C@H](C)C(=O)N(C)[C@@H](CC(C)C)C(=O)N(C)[C@@H](CC(C)C)C(=O)N(C)[C@@H](C(C)C)C(=O)N1C [Valspodar]
Myeloma [5]
  toxicity on addition of the P-gp inhibitor: increased toxicity
P-glycoprotein (P-gp)
  potency of inhibitory activity on P-gp (relative): 5 times
